Experiments:
[1] = test system: plasma protein extravasation; assay: mCPP model in guinea pigs: plasma protein extravasation in the dura mater (EvansBlue); assay type: in vivo; settings: for plasma protein extravasation as EvansBlue extinction at 600nm: 2 minutes before 1µg/kg mCPP, guinea pigs
Procedure: Functional test of Pimethixene in the mCPP model in guinea pigs.
In accordance to the protocol published by Markowitz et. al; (1987) and Olesen et. al; (2000), guinea pigs were used to determine the amount of plasma protein released at the blood vessels within the Dura mater after mCPP application. […] 2 minutes later 1µg/kg body weight mCPP were injected and followed by the i.v. application of EvansBlue as marker for the protein plasma extravasation. 15 minutes later animals were transcranial perfused and decapitated. A,defined area of the dura mater was isolated and transferred into an eppendorf tube containing 200µl formamid. Because EvansBlue binds to plasma protein, the amount of bound marker dye is a measure of extravasation of plasma protein. Formamid dissolves EvansBlue from the protein which can be colorimetric detected and quantified at 600 nm. Table 2: Determination of plasma protein extravasation as EvansBlue extinction at 600nm.

5-HT2A receptor = target: T1, 5-HT2A receptor (Homo sapiens, UniProt P28223); assay: 5-HT2A receptor binding method, [3H]ketanserin; settings: read-out: pKi values (converted)
T1 construct: expressed in transfected cells; host or cells: HEK293
T1 sequence (P28223 whole entry): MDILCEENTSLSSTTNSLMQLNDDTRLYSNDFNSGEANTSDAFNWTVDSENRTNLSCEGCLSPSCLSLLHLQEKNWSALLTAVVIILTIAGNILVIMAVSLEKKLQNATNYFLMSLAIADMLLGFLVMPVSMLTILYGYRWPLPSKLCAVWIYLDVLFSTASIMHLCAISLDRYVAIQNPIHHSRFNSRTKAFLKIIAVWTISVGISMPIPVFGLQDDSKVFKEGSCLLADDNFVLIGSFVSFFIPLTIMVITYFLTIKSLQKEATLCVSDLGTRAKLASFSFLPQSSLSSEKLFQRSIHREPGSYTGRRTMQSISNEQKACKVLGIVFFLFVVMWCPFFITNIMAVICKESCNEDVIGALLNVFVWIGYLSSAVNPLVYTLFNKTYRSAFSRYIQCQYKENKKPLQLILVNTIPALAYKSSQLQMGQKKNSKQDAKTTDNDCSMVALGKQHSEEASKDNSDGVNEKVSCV

human 5-HT2B receptor = human 5-HT2B receptor (Homo sapiens, UniProt P41595); assay: Cloned human 5-HT2B receptor binding assay, [3H]-5HT
Chain of human 5-HT2B receptor (P41595 whole entry): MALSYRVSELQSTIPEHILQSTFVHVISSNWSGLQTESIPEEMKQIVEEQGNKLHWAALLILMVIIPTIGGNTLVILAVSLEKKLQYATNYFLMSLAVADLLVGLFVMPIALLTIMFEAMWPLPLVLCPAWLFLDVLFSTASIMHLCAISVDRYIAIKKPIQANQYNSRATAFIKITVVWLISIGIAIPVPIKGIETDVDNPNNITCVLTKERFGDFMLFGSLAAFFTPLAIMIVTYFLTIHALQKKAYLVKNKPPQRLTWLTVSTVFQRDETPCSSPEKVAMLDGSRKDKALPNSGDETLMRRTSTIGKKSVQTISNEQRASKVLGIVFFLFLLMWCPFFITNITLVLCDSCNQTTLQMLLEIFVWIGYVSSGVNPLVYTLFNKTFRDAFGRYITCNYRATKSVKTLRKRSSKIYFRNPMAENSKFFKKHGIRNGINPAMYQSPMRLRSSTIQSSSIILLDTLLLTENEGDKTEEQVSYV

M1 muscarinic receptor = target: T2, M1 muscarinic receptor (Homo sapiens, UniProt P11229); assay: Receptor affinity, M1 (acetylcholine as agonist); assay type: binding; settings: read-out: pKi values (converted)
T2 sequence (P11229 1-460): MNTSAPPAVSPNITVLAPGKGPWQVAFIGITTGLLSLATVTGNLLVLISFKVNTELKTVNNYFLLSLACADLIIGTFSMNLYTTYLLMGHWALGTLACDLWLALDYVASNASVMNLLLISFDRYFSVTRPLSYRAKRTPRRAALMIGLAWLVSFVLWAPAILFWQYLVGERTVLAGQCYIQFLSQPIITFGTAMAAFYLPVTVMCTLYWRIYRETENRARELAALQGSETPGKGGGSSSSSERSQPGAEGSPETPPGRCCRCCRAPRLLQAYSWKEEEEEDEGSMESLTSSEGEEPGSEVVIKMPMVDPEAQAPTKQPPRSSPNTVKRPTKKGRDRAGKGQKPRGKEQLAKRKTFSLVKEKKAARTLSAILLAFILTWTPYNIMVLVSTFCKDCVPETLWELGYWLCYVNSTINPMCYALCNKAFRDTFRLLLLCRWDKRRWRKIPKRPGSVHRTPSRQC
Procedure: (§1) Summary of pKi values of Pimethixene for the respective receptor subtypes. pKi values were calculated using the equation of Cheng and Prusoff {pKi = -log (IC50/[1+ used concentration of Agonist/EC50])}.EC80 values were calculated from corresponding dose-response experiment using 5-HT, histamine, epinephrine (alpha 1A adrenergic receptor), dopamine (D2 dopaminergic receptor), and acetylcholine (M1 muscarinic receptor) as agonists.

[2] = target: T3, human Histamine H4 receptor (Homo sapiens, UniProt Q9H3N8); assay: Cloned human H4 receptor binding assay, [3H]-pyramilamine
T3 construct: expressed in transfected cells
T3 sequence (Q9H3N8 whole entry): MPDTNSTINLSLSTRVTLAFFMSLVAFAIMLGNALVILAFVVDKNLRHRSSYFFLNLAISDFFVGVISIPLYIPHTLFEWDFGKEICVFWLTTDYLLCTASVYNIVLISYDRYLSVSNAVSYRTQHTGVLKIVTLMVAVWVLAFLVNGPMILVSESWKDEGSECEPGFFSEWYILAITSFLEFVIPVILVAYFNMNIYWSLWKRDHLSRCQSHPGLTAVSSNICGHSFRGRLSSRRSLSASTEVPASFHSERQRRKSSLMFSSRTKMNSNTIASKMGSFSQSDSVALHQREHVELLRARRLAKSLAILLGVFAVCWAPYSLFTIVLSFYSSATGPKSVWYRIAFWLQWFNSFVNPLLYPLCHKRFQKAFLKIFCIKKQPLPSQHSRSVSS
Procedure: (§2) CHO cells were stably transfected with an expression plasmid pCineohH1, pCineohH2, pCineohH3 and pCineohH4 encoding the human Histamine H1, H2, H3 or H4 receptor, respectively. Recombinant cell lines were harvested after confluent growth, homogenized in ice-cold 50 mM Na2/potassium phosphate buffer (pH 7.4) and used for radioligand binding studies. Cell homogenates (40 - 50 µg of protein) were incubated for 30 min at 25°C in 50 mM Na2/potassium phosphate buffer (pH 7.4) in 400 µl with the various concentrations of either [^3H]-mepyramine, [^3H]-thiotidine, [^3H]-R-α-Methylhistamine, and [^3H]-pyramilamine for cells expressing recombinant human H1, H2, H3 and H4 receptors, respectively. The nonspecific binding was defined in the presence of 1 µM mianserin. In displacement studies, cell homogenated were incubated either with 1 nM [^3H]-mepyramine, 15 nM [^3H]-thiotidine, 0.5 nM [^3H]-R-α-Methylhistamine, or 15 nM [^3H]-pyramilamine and increasing concentrations of competing ligands. The incubations were stopped by rapid dilution with 3 ml of ice-cold 50 mM Na2/potassium phosphate buffer (pH 7.4). The bound radioactivity was seperated by filatration through Whatman GF/C filters that had been treated with 0.3 % polyethyleneimine. Filters were washed twice in 3 ml of buffer and radioactivity retained on the filters was measured by liquid scinitllation counting. […]

human H1 receptor = target: T4, human H1 receptor (Homo sapiens, UniProt P35367); assay: Cloned human H1 receptor binding assay, [3H]-mepyramine
T4 construct: expressed in transfected cells
T4 sequence (P35367 whole entry): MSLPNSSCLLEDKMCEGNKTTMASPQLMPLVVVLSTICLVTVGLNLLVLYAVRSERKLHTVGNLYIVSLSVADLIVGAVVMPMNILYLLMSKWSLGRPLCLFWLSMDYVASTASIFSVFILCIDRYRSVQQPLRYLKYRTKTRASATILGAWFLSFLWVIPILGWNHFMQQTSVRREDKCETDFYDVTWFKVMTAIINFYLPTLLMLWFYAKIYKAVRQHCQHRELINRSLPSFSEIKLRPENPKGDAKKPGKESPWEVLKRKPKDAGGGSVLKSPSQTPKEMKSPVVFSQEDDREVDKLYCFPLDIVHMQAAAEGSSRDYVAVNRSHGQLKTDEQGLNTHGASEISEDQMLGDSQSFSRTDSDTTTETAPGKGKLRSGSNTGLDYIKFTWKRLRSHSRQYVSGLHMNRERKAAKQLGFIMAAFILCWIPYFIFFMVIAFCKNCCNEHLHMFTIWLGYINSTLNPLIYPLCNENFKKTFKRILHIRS
Procedure: as §2

[3] = target: T5, human Histamine H3 receptor (Homo sapiens, UniProt Q9Y5N1); assay: Cloned human H3 receptor binding assay, [3H]-R-α-Methylhistamine
T5 construct: expressed in transfected cells
T5 sequence (Q9Y5N1 whole entry): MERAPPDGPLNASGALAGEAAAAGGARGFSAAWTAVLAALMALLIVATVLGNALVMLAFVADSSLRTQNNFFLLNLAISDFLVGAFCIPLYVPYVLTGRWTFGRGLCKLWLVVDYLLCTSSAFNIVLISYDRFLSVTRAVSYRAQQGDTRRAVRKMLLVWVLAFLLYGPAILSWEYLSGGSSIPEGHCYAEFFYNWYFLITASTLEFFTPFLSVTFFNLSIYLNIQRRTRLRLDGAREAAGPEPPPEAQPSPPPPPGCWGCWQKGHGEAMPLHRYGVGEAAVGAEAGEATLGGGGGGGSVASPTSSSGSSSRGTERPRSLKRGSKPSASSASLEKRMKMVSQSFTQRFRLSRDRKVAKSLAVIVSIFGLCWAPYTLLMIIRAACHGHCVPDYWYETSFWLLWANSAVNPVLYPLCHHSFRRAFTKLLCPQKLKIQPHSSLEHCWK
Procedure: as §2

D2 dopaminergic receptor = D2 dopaminergic receptor (Homo sapiens, UniProt P14416); assay: Receptor affinity, D2 (dopamine as agonist); assay type: binding; settings: read-out: pKi values (converted)
Chain of D2 dopaminergic receptor (P14416 whole entry): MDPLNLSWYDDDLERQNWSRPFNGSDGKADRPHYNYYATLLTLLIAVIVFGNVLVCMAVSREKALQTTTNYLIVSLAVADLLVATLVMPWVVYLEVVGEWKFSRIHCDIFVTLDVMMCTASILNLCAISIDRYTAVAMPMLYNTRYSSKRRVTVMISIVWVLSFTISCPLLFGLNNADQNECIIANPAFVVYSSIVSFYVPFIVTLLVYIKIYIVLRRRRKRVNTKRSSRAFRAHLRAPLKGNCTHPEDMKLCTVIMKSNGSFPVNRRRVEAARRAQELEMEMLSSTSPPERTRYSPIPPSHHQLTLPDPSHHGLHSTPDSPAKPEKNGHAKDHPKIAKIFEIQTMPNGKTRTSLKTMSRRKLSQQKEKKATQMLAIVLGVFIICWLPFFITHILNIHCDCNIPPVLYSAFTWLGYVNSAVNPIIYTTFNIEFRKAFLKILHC
Procedure: as §1

5-HT2C receptor = target: T6, 5-HT2C receptor (Homo sapiens, UniProt P28335); assay: 5-HT2C receptor binding method, [3H]mesulergine; settings: read-out: pKi values (converted)
T6 construct: expressed in transfected cells; host or cells: Cos-7
T6 sequence (P28335 33-458): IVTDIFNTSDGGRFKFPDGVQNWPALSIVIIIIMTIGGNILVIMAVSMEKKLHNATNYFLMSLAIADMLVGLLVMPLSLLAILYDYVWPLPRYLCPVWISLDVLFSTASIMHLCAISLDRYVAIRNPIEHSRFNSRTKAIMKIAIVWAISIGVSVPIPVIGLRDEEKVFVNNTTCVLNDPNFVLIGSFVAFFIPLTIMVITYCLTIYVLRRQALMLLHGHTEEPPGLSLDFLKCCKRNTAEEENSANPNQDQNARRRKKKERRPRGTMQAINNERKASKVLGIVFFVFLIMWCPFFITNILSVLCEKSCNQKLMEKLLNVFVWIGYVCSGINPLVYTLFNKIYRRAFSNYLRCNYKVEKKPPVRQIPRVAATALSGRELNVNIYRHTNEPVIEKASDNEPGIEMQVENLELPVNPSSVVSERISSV
Procedure: 5-HT2C receptors were labelled in Cos-7 cells expressing the human 5-HT2C receptor and in NIH-3T3 expressing the rat 5-HT2C receptor.
Assays were conducted as described for the 5-HT2A receptor except that the radioligand was [^3H]mesulergine. […] .

[4] = target: T7, human Histamine H2 receptor (Homo sapiens, UniProt P25021); assay: Cloned human H2 receptor binding assay, [3H]-thiotidine
T7 construct: expressed in transfected cells
T7 sequence (P25021 whole entry): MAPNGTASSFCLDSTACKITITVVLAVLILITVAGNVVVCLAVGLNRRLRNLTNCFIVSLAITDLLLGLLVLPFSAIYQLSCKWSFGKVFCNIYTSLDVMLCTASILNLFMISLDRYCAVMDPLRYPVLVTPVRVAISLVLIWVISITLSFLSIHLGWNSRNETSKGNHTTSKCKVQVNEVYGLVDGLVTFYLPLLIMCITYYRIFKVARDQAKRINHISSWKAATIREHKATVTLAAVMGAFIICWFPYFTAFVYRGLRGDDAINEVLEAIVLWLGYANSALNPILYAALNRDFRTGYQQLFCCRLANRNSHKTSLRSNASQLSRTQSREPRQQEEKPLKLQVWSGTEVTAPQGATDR
Procedure: as §2

[5] = target: T8, alpha 1A adrenergic receptor (Homo sapiens, UniProt P35348); assay: Receptor affinity, Alpha 1A (epinephrine as agonist); assay type: binding; settings: read-out: pKi values (converted)
T8 sequence (P35348 1-466): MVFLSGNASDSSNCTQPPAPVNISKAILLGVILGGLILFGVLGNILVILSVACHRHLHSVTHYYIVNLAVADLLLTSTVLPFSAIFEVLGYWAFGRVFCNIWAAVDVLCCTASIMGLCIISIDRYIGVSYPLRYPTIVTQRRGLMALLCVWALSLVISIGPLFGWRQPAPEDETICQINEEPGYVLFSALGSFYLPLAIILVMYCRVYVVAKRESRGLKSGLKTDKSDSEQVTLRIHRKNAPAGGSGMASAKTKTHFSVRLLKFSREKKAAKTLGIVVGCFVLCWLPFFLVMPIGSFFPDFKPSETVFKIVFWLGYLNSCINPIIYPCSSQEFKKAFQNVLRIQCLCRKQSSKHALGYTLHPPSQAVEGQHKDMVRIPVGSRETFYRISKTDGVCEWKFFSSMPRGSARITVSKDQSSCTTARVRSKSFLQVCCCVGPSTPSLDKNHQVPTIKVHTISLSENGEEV
Procedure: as §1

For CC[C@@H](CO)NC(=O)[C@@H]1C=C2c3cccc4c3c(cn4C)C[C@H]2N(C)C1 [Methysergide], the “plasma protein extravasation as EvansBlue extinction at 600nm” value (“plasma protein extravasation” below) ([1]; 0,1 µg/kg i.v.) was 0,265 ± 0,034, the “plasma protein extravasation” value ([1]; 1 µg/kg i.v.) was 0,250 ± 0,027 and the “plasma protein extravasation” value ([1]; 10 µg/kg i.v.) was 0,228 ± 0,064. The “plasma protein extravasation” value ([1]; 100 µg/kg i.v.) was 0,189 ± 0,026.

For CN1CCC(=C2c3ccccc3Sc3ccccc32)CC1 [Pimethixene, 9-(N-methyl-piperidyliden-4)-thioxanthene], the Ki (5-HT2A receptor) was 0.0631 nM, the Ki (human 5-HT2B receptor) was 0.0251 nM and the “affinity for the 5-HT2B receptor versus 5HT2C receptor” value (human 5-HT2B receptor; selectivity, result in words) was “selective affinity”. The Ki (M1 muscarinic receptor) was 2.51 nM, the “plasma protein extravasation” value ([1]; 0,01 µg/kg i.v.) was 0,157 ± 0,040 and the “plasma protein extravasation” value ([1]; 0,1 µg/kg i.v.) was 0,126 ± 0,028. For the same molecule, the “plasma protein extravasation” value ([1]; 0,001 µg/kg i.v.) was 0,269 ± 0,022, the pKi values ([2]; H4) was “low activity” and the affinity ([2]; human H4 receptor, result in words) was “no affinity”. The Ki (human H1 receptor; H1, read-out: pKi values (converted)) was 0.00794 nM, the affinity (human H1 receptor; human H1 receptor, result in words) was “high affinity” and the pKi values ([3]; H3) was “low activity”. For the same molecule, the affinity ([3]; human H3 receptor, result in words) was “no affinity”, the Ki (D2 dopaminergic receptor) was 6.31 nM and the Ki (5-HT2C receptor) was 2.51 nM. The pKi values ([4]; H2) was “low activity”, the affinity ([4]; human H2 receptor, result in words) was “no affinity” and the Ki [5] was 25.1 nM.

CN1CCC(=C2c3ccccc3CCc3sccc32)CC1 [Pizotifen] was tested, and the Ki (human 5-HT2B receptor) was 2.88 nM, the “plasma protein extravasation” value ([1]; 1 µg/kg i.v.) was 0,404 ± 0,025 and the “plasma protein extravasation” value ([1]; 10 µg/kg i.v.) was 0,144 ± 0,035. The “plasma protein extravasation” value ([1]; 100 µg/kg i.v.) was 0,230 ± 0,018.

Clc1cccc(N2CCNCC2)c1 [mCPP, m-chlorophenylpiperazine] was tested, and the extinction ([1]; positive control: mCPP agonist alone, 1µg/kg, negative control 0,130 ± 0,024) was 0,300 ± 0,038.

— EP1655027A1, “9-(N-methyl-piperidyliden-4)-thioxanthene for treatment of pulmonary hypertension and migraine” (Biofrontera Pharmaceuticals GmbH, priority 2004, dated 2006)
